Reference: patent US11932874B2, “Method for culturing mesenchymal stem cells using gamma-irradiated serum” (R Bio CO., Ltd., priority 2018, dated 2024)

Columns and labels:
Type in all cases: cell-based
[1] = system: human adipose tissue-derived stem cells; test: Culture of stem cells in AMSC+ medium with 25 kGy gamma-irradiated FBS and vitamin C post-treatment (Example 2): cell number, doubling time; details: for Cell No. / Doubling time: Ad-MSC (P4)
Method: Fetal bovine serum (FBS) was irradiated with 25 kGy of gamma radiation (Soyagreentec Co., Ltd.), thereby preparing gamma-irradiated FBS. Then, the human adipose tissue-derived stem cells at passage 3, isolated in Example 1, were thawed and inoculated into T75 flasks at a concentration of 0.5×10^6 cells/T75 flask, and the inoculated cells were cultured with AMSC+ culture medium (R-Bio Co., Ltd.) containing the prepared gamma-irradiated FBS at a concentration of 5% in a CO2 incubator at 37° C. for 2 days. After 2 days of culture, the medium was removed and replaced with either AMSC+ culture medium containing 5% gamma-irradiated FBS (a negative control group) or medium obtained by adding vitamin C (ascorbic acid; L-Ascorbic Acid 2-phosphate) to AMSC+ culture medium containing 5% gamma-irradiated FBS (a vitamin C post-treatment test group). Vitamin C was added to the culture medium at concentrations of 0.025, 0.05, 0.1 and 1%. The AMSC+ culture medium (R-Bio Co., Ltd.) is a 1:1 mixture of KSFM-P medium (containing Defined Keratinocyte-SFM, 0.2 mM L-ascorbic acid 2-phosphate, 5 μg/ml insulin, 2 mM N-acetyl-L-cysteine, 0.09 mM calcium chloride, 74 ng/ml hydrocortisone and 5% FBS) and DMEM medium. After 4 days of culture, the cell proliferation rate and doubling time of the cells were examined. The viability of the cells was examined with a microscope and a hemocytometer, and the doubling time was calculated using the following equation: Doubling Time=duration×log(2)/log(final concentration)−log(initial concentration). [Equation 1] A positive control group was cultured using 5% normal FBS (which was not irradiated with gamma radiation) and AMSC+ culture medium in the same manner as the negative control group and the test group.

[2] = system: human adipose tissue-derived stem cells; test: Differentiation into chondrocytes, TSP2 ELISA (Example 7); details: 30 KGy gamma radiation, post-treated with 1% vitamin C, passage 4
Method: (§1) For the positive control group and vitamin C post-treatment test group of Example 6, the purity and characteristics of the stem cells at passage 4 were examined. The purity of the stem cells was examined by analyzing the expression of CD markers using FACS (FIG. 12 and Table 10), and the characteristics of the stem cells were examined by analyzing differentiation into adipocytes, osteocytes and chondrocytes (FIGS. 13 to 15). Differentiation into adipocytes was analyzed by oil red 0 staining according to the Sigma-Aldrich protocol, and differentiation into osteocytes was analyzed by alizarin red S staining according to the Lifeline Cell Tech's protocol, and differentiation into chondrocytes was analyzed by TSP2 ELISA.

[3] = system: human adipose tissue-derived stem cells; test: Expression of stem cell CD markers by FACS (Example 7); set-up: CD73 expression (FACS) / CD31 expression (FACS) / CD34 expression (FACS) / CD45 expression (FACS): unit not given here; details: for CD31 expression (FACS) / CD34 expression (FACS) / CD45 expression (FACS) / CD73 expression (FACS) / CD90 expression (FACS): 30 kGy FBS; for CD90 expression (FACS): in % (unit assumed)
Method: as §1

[4] = system: human adipose tissue-derived stem cells; test: Differentiation into osteocytes, alizarin red S staining (Example 7); details: 30 KGy gamma radiation, post-treated with 1% vitamin C, passage 4
Method: as §1

[5] = system: human adipose tissue-derived stem cells; test: Differentiation into adipocytes, oil red O staining (Example 7); details: 30 KGy gamma radiation, post-treated with 1% vitamin C, passage 4
Method: as §1

[6] = system: human adipose tissue-derived stem cells; test: Adhesion of stem cells cultured in 25 kGy gamma-irradiated FBS: time at which stem cell density reached 90% (Example 4); details: 25 kGy FBS, passage 0 cells
Method: In the same manner as described in Example 3 above, fetal bovine serum (FBS) was irradiated with 25 kGy of gamma radiation, thereby preparing gamma-irradiated FBS. Vitamin C (ascorbic acid; L-Ascorbic Acid 2-phosphate) was added to the FBS which was then irradiated with 25 kGy of gamma irradiation, thereby preparing gamma-irradiated FBS pretreated with vitamin C. The vitamin C was added to the FBS at a concentration of 1%. Then, the human adipose tissue-derived stem cells at passage 0, isolated in Example 1, were thawed and inoculated into T25 flasks at a concentration of 1.7×10^3 cells/T25 flask, and the inoculated cells were cultured with AMSC+ culture medium (R-Bio Co., Ltd.) containing the prepared gamma-irradiated FBS or gamma-irradiated FBS pretreated with vitamin C at a concentration of 5% in a CO2 incubator at 37° C. for 2 days. After 2 days of culture, the medium was removed and replaced with AMSC+ culture medium containing 5% gamma-irradiated FBS (a negative control group), medium obtained by adding vitamin C to AMSC+ culture medium containing 5% gamma-irradiated FBS (a vitamin C post-treatment test group), or AMSC+ culture medium containing 5% gamma-irradiated FBS pretreated with vitamin C (a vitamin C pre-treatment test group). Vitamin C was added to the culture medium or FBS at a concentration of 1%. A positive control group was also prepared as described in Examples 2 and 3 above. For each control group and the test group, examination was performed of the time at which the density of the stem cells reached 90% so that these cells could be sub-cultured.

[7] = 25 KGy FBS + 0.025% AA2P added to medium, 4 days of culture
[8] = 25 KGy FBS + 0.05% AA2P added to medium, 4 days of culture
[9] = 25 KGy FBS + 0.1% AA2P added to medium, 4 days of culture
[10] = 25 KGy FBS + 1% AA2P added to medium, 4 days of culture
[11] = vitamin C post-treatment, 25 kGy FBS, 4 days of culture
[12] = Stem cells #1 P4, 1% vitamin C post-treatment
[13] = Stem cells #2 P4, 1% vitamin C post-treatment
[14] = Stem cells #3 P4, 1% vitamin C post-treatment

## O=C1O[C@H]([C@@H](O)CO)C(O)=C1OP(=O)(O)O [AA2P, L-Ascorbic Acid 2-phosphate]
[1]; [7]
  Cell No.: 10.035 ×10^6 cells
  Doubling time: 31.33 h
[1]; [8]
  Cell No.: 9.5 ×10^6 cells
  Doubling time: 32.16 h
[1]; [9]
  Cell No.: 10.6 ×10^6 cells
  Doubling time: 30.54 h
[1]; [10]
  Cell No.: 12 ×10^6 cells
  Doubling time: 28.9 h
[1]; [11]
  cell number versus negative control group: increased compared to the negative control group
  doubling time versus negative control group: decreased compared to the negative control group
[1]; vitamin C post-treatment, 25 kGy FBS, days 0, 1 and 4 (FIG. 1)
  microscope observation of stem cells: levels similar to those of the positive control group
[2]
  differentiation into chondrocytes versus positive control group: did not differ from those of the positive control group
[3]; 30 KGy gamma radiation, post-treated with 1% vitamin C, passage 4
  expression of CD markers versus positive control group: did not differ from that in the positive control group
[3]; [12]
  CD31 expression (FACS): 0.52
  CD34 expression (FACS): 0.31
  CD45 expression (FACS): 0.49
  CD73 expression (FACS): 94.30
  CD90 expression (FACS): 99.98
[3]; [13]
  CD31 expression (FACS): 0.16
  CD34 expression (FACS): 0.14
  CD45 expression (FACS): 0.11
  CD73 expression (FACS): 93.42
  CD90 expression (FACS): 99.99
[3]; [14]
  CD31 expression (FACS): 0.47
  CD34 expression (FACS): 0.70
  CD45 expression (FACS): 0.78
  CD73 expression (FACS): 91.45
  CD90 expression (FACS): 99.99
[4]
  differentiation into osteocytes versus positive control group: did not differ from those of the positive control group
[5]
  differentiation into adipocytes versus positive control group: did not differ from those of the positive control group
[6]; Post-treatment with 1% Vit. C
  Density (90%): day of culture on which stem cell density reached 90%: Day 10
[6]; Post-treatment with 1% Vit. C, listed as vitamin C
  Density (90%): day of culture on which stem cell density reached 90%: 13 days
[6]; Pre-treatment with 1% Vit. C
  Density (90%): day of culture on which stem cell density reached 90%: Day 13
[6]; Pre-treatment with 1% Vit. C, listed as vitamin C
  Density (90%): day of culture on which stem cell density reached 90%: 10 days
